Experimental data published in US12427128B2, “Sensorineural hair cell differentiation” (Massachusetts Eye and Ear Infirmary, priority 2014, dated 2025).

What was measured:
organ of Corti explants = assay: Hair cell number in organ of Corti explants from Atoh1-GFP mice; assay type: cell-based, mouse; details: for new hair cells in organ of Corti explants: P1-P2 explants, 48 h
Text: In this example, modulation of Pax2 and Sox2 expression in the differentiating inner ear cells included reducing Sox2 expression levels while increasing Pax2 expression level. Sox2 expression was modulated using DAFT (Jeon et al., j. Neurosci., 31:8351-8358 (2011)). Pax2 expression was modulated using FGF2 (Adamska et al., Mech. Dev., 109:303-313 (2001); Mansukhani et al., J. Cell. Biol., 168:1065-1076 (2005)). DAPT was used to decrease Sox2 and FGF2 to activate Pax2 expression in inner ear stein cells (see FIG. 12A). 4th-5th generation spheres or OC explants (P1-P2) were plated in 4-well plates (Greiner) on round 10 mm glass coverslips coated with poly-L-lysine (Cultrex) and attachment took place overnight in 10% FBS/DMEM-high glucose (GIBCO). Attachment was ensured with microscopic inspection and the medium was changed to serum-free DMEM-high glucose/F12 (mixed 1:1, GIBCO) and N2 and B27 (Invitrogen). Spheres were differentiated for 3, 7 or 10 d. For treatment, either DAFT (2.5 μM) or FGF (20 ng/ml) or control medium containing only DMSO (0.1%) were applied for 7d on spheres and 48 h on OC explants. Cells were harvested and further analyzed by immunohistochemistry. Axiovision 4.3 was used for data acquisition and the number of cells was quantified with Metamorph software. Cell counts were expressed as mean±standard deviation. An average of 1,000 cells were counted for spheres or 100 μm for OC explants. Origin software was used for statistical evaluation. Cell detection techniques are described in the Examples above.
Samples were obtained and detected using methods described above. Organ of Corti explants (P1-P2) from Atoh1-GFP mice were contacted with DAPT, FGF2, or a combination of both for 48 h. Hair cell number was then assessed.

Atoh1 = Atoh1 expression by quantitative RT-PCR in OC-1 cells; assay type: cell-based, mouse; details: OC-1 cells treated with HDAC inhibitors
Procedure: Atoh1 levels were measured in vitro in OC-1 cells or spheres by quantitative RT-PCR. For RT-PCR. total RNA was extracted from OC-1 cells or spheres treated with RAPT, FGF2, or DART and RNAi with the RiNeasy Maxi Kit (Qiagen) according to the manufacturer's instructions. RNA was denatured at 65° C. for 5 min. For reverse transcription, ImProm II (Promega) was used with random hexamers. Reverse transcription conditions were 25° C. for 5 min followed by 42° C. for 60 min. Reactions were terminated at 70° C. for 15 min. c: ANAs were mixed with Platinum quantitative PCR Supermix ROX with UDG (Invitrogen) and primers for Atoh1, Pax2 or Sox2 (ABI) according to the manufacturer's instructions. Gene expression was measured relative to 18S RNA. Samples were analyzed in 96 well plates in triplicate by quantitative PCR (Applied Biosystems 7900HT) using the following conditions: initial denaturation at 95° C. for 2 min, denaturation at 95° C. for 40 s and annealing/extension at 60′ C for 35 s for 45 cycles.
To address whether interaction with DNA-binding co-factors influenced bound histones at the Atoh1 locus, drugs that block histone modifications were used.

Compound | new hair cells in organ of Corti explants (organ of Corti explants) | numbers of hair cells (organ of Corti explants; postnatal explants, DAPT with control siRNA) | expression of Atoh1, qRT-PCR relative to 18S RNA (Atoh1)
C[C@H](NC(=O)Cc1cc(F)cc(F)c1)C(=O)N[C@H](C(=O)OC(C)(C)C)c1ccccc1 [DAPT] | additional outer hair cells were seen in the apex | Increased numbers of hair cells | –
CC(/C=C/C(=O)NO)=C\[C@@H](C)C(=O)c1ccc(N(C)C)cc1 [TSA, Trichostatin A] | – | – | increased expression of Atoh1
CCCC(CCC)C(=O)O [VPA, valproic acid] | – | – | increased expression of Atoh1
FGF2: growth factor used to activate Pax2 expression in inner ear stem cells; 20 ng/ml | additional outer hair cells were seen in the apex | – | –
